“And” between values parts separate entries of the source, which are not always exact repeats. Equal entries are not always repeated.
Assays:
MMT/MCLT rat model of OA = assay: MMT/MCLT trial 1 histopathology (same doses); type: in vivo; parameters: key to Tibial cartilage degeneration score, 3-zone total: sum of three tibial zone scores (each on 5-point scale); key to Total joint score w/o femur / Total joint score / Total joint score without femur: sum: cartilage degeneration scores + mean osteophyte score; conditions: low or only dose; for Bone score / Depth ratio any matrix change, mean / Depth ratio any matrix change, zone 2 / Femoral cartilage degeneration score / Tibial cartilage degeneration score, 3-zone total / Tibial cartilage degeneration score, zone 1 / Tibial cartilage degeneration score, zone 2 / Tibial cartilage degeneration score, zone 3 / Tibial cartilage degeneration width, significant / Tibial cartilage degeneration width, total / Tibial osteophyte measure / Tibial osteophyte score / Total joint score / Total joint score w/o femur: mean; for % decrease, bone score / % decrease, depth ratio mean / % decrease, depth ratio zone 2 / % decrease, femoral cartilage degeneration score / % decrease, osteophyte measure / % decrease, osteophyte score / % decrease, significant degeneration width / % decrease, tibial score 3-zone total / % decrease, tibial score zone 1 / % decrease, tibial score zone 2 / % decrease, tibial score zone 3 / % decrease, total degeneration width / % decrease, total joint score / % decrease, total joint score w/o femur: vs saline group
Excerpt: For MMT/MCLT rat knee joints, sections were cut in 200-μm steps; stained with toluidine blue (also with a right and left half per section); and similarly analyzed for cartilage degeneration, proteoglycan loss, collagen damage, and osteophyte formation. Results were averaged across the three sections for an overall semiquantitative score. Regional differences across the tibial plateau were taken into consideration by dividing each section into three zones delineated using an ocular micrometer (outside, middle, and inside). Scores were based on the percentage of area affected within the zone.
Cartilage degeneration in the tibia was scored on a 5-point scale as detailed in the Methods section of Additional file 1. The total extent of degeneration of the tibial plateau was measured (in micrometers) and included an analysis of cell loss, proteoglycan loss, and collagen damage. Significant cartilage degeneration reflecting any degeneration extending through more than 50 % of the cartilage thickness was also measured. Collagen damage across the medial tibial plateau (the most severely affected section of the two halves) was also quantified.
Osteophytes and femoral cartilage degeneration were analyzed as detailed in Additional file 1. Scoring of the osteophytes and categorization into small, medium, and large was performed using an ocular micrometer. The actual osteophyte measurement (tidemark to farthest distance point extending toward the synovium) was also recorded. The femoral cartilage degeneration score and the three-zone sum of the tibial cartilage degeneration scores (mean of three levels) were summed to create a total cartilage degeneration score. The mean osteophyte score for each joint was added to this value to create a total joint score. […]
(§1) Histopathology MMT/MCLT Model

MIA rat model of OA = assay: MIA trial 2 histopathology (same doses as dRS test); type: in vivo; conditions: group mean; tacrolimus 0.3 mg/kg, other drugs single dose
Method: Following functional testing in the first and second MIA trials, femurs were fixed in paraformaldehyde, processed, sectioned, stained with hematoxylin and eosin or Safranin O at Premier Laboratory (Longmont, CO, USA), and analyzed by a veterinary pathologist. For MIA trial 1, sections were evaluated for the percentage area of chondrocyte necrosis and/or proteolytic degeneration using a 5-point scale with 0 = none; 1 being <10 %; 2 = 10–30 %; 3 = 30–60 %; 4 = 60–90 %; and 5 being >90 %. Other characteristics of inflammation, proliferation, and integrity of the synovium, subchondral bone, and articular cartilage were scored as normal, minimal, mild, moderate, marked, or increased or decreased when severity was not graded. MIA trial 2 was measured similarly and then cross-checked according to the methods used for MIA trial 3 (see text below).
For MIA trial 3, joints were fixed and toluidine blue–stained sections of the rat knees were comprehensively analyzed from test and control subjects as detailed in Additional file 1. Briefly, a 5-point cartilage matrix score was derived based upon (1) approximate percentage of total loss of articular chondrocytes for each of four articular surfaces, (2) estimated proteoglycan loss (via Safranin O staining), and (3) loss of interstitial matrix. Chondrocyte necrosis and proteolytic degeneration of the femurs were scored on a 5-point scale as in trial 1. A femoral cartilage degeneration score and a three-zone sum of the tibial cartilage degeneration scores (mean of three levels) were also summed to create a total cartilage degeneration score. The mean osteophyte score for each joint was added to this value to create a total joint score with matrix. Other parameters assessed included synovial membrane inflammation and proliferation. Representative images from each group were also collected (see, e.g., Fig. 4 and Additional file 1: Fig. S55, Trial 3).
The histopathology for the first MIA trial was performed by Premier Laboratories (Dr. Michael Hawes, APS, Pathologist). Treatments were masked during the assessment. Chondrocyte necrosis and proteolytic degeneration of the femurs were scored on a 5 point scale with 0 = None; 1 = <10%; […]
proteoglycan content (safranin O staining), synovial membrane inflammation and proliferation, subchondral bone, and articular cartilage (as indicated in Supplementary methods). Characteristics within these categories were scored as normal, minimal, mild, moderate, marked, or +/- when severity was not graded. Slides from Trial 2 were further reviewed by Dr. Bendele using the analytical method described below for the MMT/MCLT model to confirm any conclusions.
For the histopathology of the MIA model in Trial 3, completed by Bolder BioPATH (and Dr.
Bendele), a tolouidine blue stained slide containing both halves of the joint was comprehensively analyzed from test and control subjects. Approximate % of total loss of articular chondrocytes, loss of proteoglycan and loss of collagenous matrix were determined for each articular surface (medial tibial plateau (MTP), lateral tibial plateau (LTP), medial femoral condyle (MFC), and lateral femoral condyle (LFC). Chondrocyte loss was quantified by estimating the area of cartilage in which there were no apparently viable chondrocytes and proteoglycan loss was quantified by estimating differences in intensity of toluidine blue matrix staining. Loss of interstitial matrix was an indication of disruption and diminished type II collagen. Based on the mean % loss for the four surfaces in these parameters, a five point matrix score was utilized with the subchondral bone resorption, subchondral bone sclerosis and osteophyte scores to achieve a total joint score.
as §1

Clc1cccc(Cl)c1N=C1NCCN1 [Clonidine]
Bone score (MMT/MCLT rat model of OA): 2.88 | Depth ratio any matrix change, mean (MMT/MCLT rat model of OA): 0.35 | Depth ratio any matrix change, zone 2 (MMT/MCLT rat model of OA): 0.16 | Femoral cartilage degeneration score (MMT/MCLT rat model of OA): 1.29 and 1.29 ± 0.20 | Tibial cartilage degeneration score, 3-zone total (MMT/MCLT rat model of OA): 6.13 | Tibial cartilage degeneration score, zone 1 (MMT/MCLT rat model of OA): 4.13 | Tibial cartilage degeneration score, zone 2 (MMT/MCLT rat model of OA): 2.00 | Tibial cartilage degeneration score, zone 3 (MMT/MCLT rat model of OA): 0.00 | Tibial cartilage degeneration width, significant (MMT/MCLT rat model of OA): 691.67 µm | Tibial cartilage degeneration width, total (MMT/MCLT rat model of OA): 1175.00 µm | Tibial osteophyte measure (MMT/MCLT rat model of OA): 540.00 µm | Tibial osteophyte score (MMT/MCLT rat model of OA): 3.92 | Total joint score (MMT/MCLT rat model of OA): 11.33 and 11.33 ± 0.55 | Total joint score w/o femur (MMT/MCLT rat model of OA): 10.04 | % decrease, bone score (MMT/MCLT rat model of OA): 12% | % decrease, depth ratio mean (MMT/MCLT rat model of OA): 2% | % decrease, depth ratio zone 2 (MMT/MCLT rat model of OA): 14% | % decrease, femoral cartilage degeneration score (MMT/MCLT rat model of OA): 30% | % decrease, osteophyte measure (MMT/MCLT rat model of OA): -5% | % decrease, osteophyte score (MMT/MCLT rat model of OA): 0% | % decrease, significant degeneration width (MMT/MCLT rat model of OA): 5% | % decrease, tibial score 3-zone total (MMT/MCLT rat model of OA): 6% | % decrease, tibial score zone 1 (MMT/MCLT rat model of OA): 4% | % decrease, tibial score zone 2 (MMT/MCLT rat model of OA): 9% | % decrease, tibial score zone 3 (MMT/MCLT rat model of OA): 100% | % decrease, total degeneration width (MMT/MCLT rat model of OA): 10% | % decrease, total joint score (MMT/MCLT rat model of OA): 8% | % decrease, total joint score w/o femur (MMT/MCLT rat model of OA): 4% | Bone resorption score (MIA rat model of OA): 3.7 | Bone resorption, percent of surface, LFC (MIA rat model of OA): 87% | Bone resorption, percent of surface, LTP (MIA rat model of OA): 53% | Bone resorption, percent of surface, MFC (MIA rat model of OA): 63% | Bone resorption, percent of surface, MTP (MIA rat model of OA): 73% | Bone resorption, percent of surface, mean (MIA rat model of OA): 69% | Cartilage matrix damage score (MIA rat model of OA): 3.7 and 3.7 ± 0.3 | Mean of all cartilage loss (MIA rat model of OA): 67% | Osteophyte measure (MIA rat model of OA): 866.7 µm | Osteophyte score (MIA rat model of OA): 4.0 | Subchondral bone sclerosis score (MIA rat model of OA): 0.3 | Total joint score w/o matrix (MIA rat model of OA): 8.0 | Total joint score with matrix (MIA rat model of OA): 11.7 and 11.7 ± 0.9

CC1=C(CO)C(=O)O[C@@H]([C@@H](C)[C@H]2CC[C@H]3[C@@H]4C[C@H]5O[C@]56[C@@H](O)C=CC(=O)[C@]6(C)[C@H]4CC[C@]23C)C1 [Withaferin A]
Bone score (MMT/MCLT rat model of OA): 2.88 | Depth ratio any matrix change, mean (MMT/MCLT rat model of OA): 0.38 | Depth ratio any matrix change, zone 2 (MMT/MCLT rat model of OA): 0.18 | Femoral cartilage degeneration score (MMT/MCLT rat model of OA): 1.83 and 1.83 ± 0.52 | Tibial cartilage degeneration score, 3-zone total (MMT/MCLT rat model of OA): 6.04 | Tibial cartilage degeneration score, zone 1 (MMT/MCLT rat model of OA): 4.13 | Tibial cartilage degeneration score, zone 2 (MMT/MCLT rat model of OA): 1.88 | Tibial cartilage degeneration score, zone 3 (MMT/MCLT rat model of OA): 0.04 | Tibial cartilage degeneration width, significant (MMT/MCLT rat model of OA): 637.50 µm | Tibial cartilage degeneration width, total (MMT/MCLT rat model of OA): 1262.50 µm | Tibial osteophyte measure (MMT/MCLT rat model of OA): 515.42 µm | Tibial osteophyte score (MMT/MCLT rat model of OA): 3.96 | Total joint score (MMT/MCLT rat model of OA): 11.83 and 11.83 ± 0.61 | Total joint score w/o femur (MMT/MCLT rat model of OA): 10.00 | % decrease, bone score (MMT/MCLT rat model of OA): 12% | % decrease, depth ratio mean (MMT/MCLT rat model of OA): -5% | % decrease, depth ratio zone 2 (MMT/MCLT rat model of OA): 0% | % decrease, femoral cartilage degeneration score (MMT/MCLT rat model of OA): 0% | % decrease, osteophyte measure (MMT/MCLT rat model of OA): 0% | % decrease, osteophyte score (MMT/MCLT rat model of OA): -1% | % decrease, significant degeneration width (MMT/MCLT rat model of OA): 12% | % decrease, tibial score 3-zone total (MMT/MCLT rat model of OA): 8% | % decrease, tibial score zone 1 (MMT/MCLT rat model of OA): 4% | % decrease, tibial score zone 2 (MMT/MCLT rat model of OA): 15% | % decrease, tibial score zone 3 (MMT/MCLT rat model of OA): 0% | % decrease, total degeneration width (MMT/MCLT rat model of OA): 4% | % decrease, total joint score (MMT/MCLT rat model of OA): 4% | % decrease, total joint score w/o femur (MMT/MCLT rat model of OA): 4%

Reference: article PMC4721142, “Randomized controlled studies on the efficacy of antiarthritic agents in inhibiting cartilage degeneration and pain associated with progression of osteoarthritis in the rat” (Arthritis Research & Therapy, 2016)
